Experiments:
Assay type in all cases: physicochemical
[1] = API and excipients compatibility study (10 days of stress testing of mixed powders)
[2] = Risk assessment of the API and excipients compatibility
Source text: Level 1 (low risk): maximum single impurity is less than 0.1% and total impurity is less than 0.2%;
Level 2 (medium risk): maximum single impurity is 0.1-0.2% or total impurity is 0.2%-0.4%;
Level 3 (high risk): maximum single impurity is more than 0.2% or total impurity is more than 0.4%.

[3] = Accelerated stability test, detection of impurity A and total impurity by HPLC; conditions: active ingredient alone, accelerated stability test at 40° C. for 6 months
Source text: The method for detecting impurity A and total impurity was shown as follows:
Equipment: Agilent 1260 series;
Column: XBridge Shield RP18 column (100×4.6 mm, 3.5 μm);
Mobile phase A: 0.05 mol/L potassium dihydrogen phosphate solution (adjusted to pH 7.2 with sodium hydroxide solution)-acetonitrile (20:80);
Mobile phase B: 0.05 mol/L potassium dihydrogen phosphate solution (adjusted to pH 7.2 with sodium hydroxide solution)-acetonitrile (40:60);
Detection wavelength: 247 nm;
Column temperature: 30° C.;
Solvent: acetonitrile-water (50:50).

[4] = Day 10, Illumination (4500 ± 5001x)

Maximum single impurity (%) ([1]; Day 0): 0.02%
Total impurity (%) ([1]; Day 0): 0.02%
Maximum single impurity (%) ([1]; Day 10, 60° C. ± 2° C.): 0.02%
Total impurity (%) ([1]; Day 10, 60° C. ± 2° C.): 0.04%
Maximum single impurity (%) [1, 4]: 0.12%
Total impurity (%) [1, 4]: 0.14%
Maximum single impurity (%) ([1]; Day 10, RH75% ± 5%): 0.02%
Total impurity (%) ([1]; Day 10, RH75% ± 5%): 0.02%
Maximum single impurity (%) ([1]; Day 10, RH92.5% ± 5%): 0.02%
Total impurity (%) ([1]; Day 10, RH92.5% ± 5%): 0.02%
Risk level assessment value Total ([2]; sum over RH75%, RH92.5%, 60° C., Illumination): 5
change in the content of impurities in the active ingredient [3]: no significant change
SMILES: CCOc1cc2ncnc(Nc3ccc(F)c(Cl)c3)c2cc1NC(=O)/C=C/CN(C)C [API, (E)-N-(4-((3-chloro-4-fluorophenyl)amino)-7-ethoxyquinazolin-6-yl)-4-(dimethylamino)but-2-enamide]
Risk level assessment value 60° C. ([2]; 60° C., 10 days stress testing): 1 (Level 1 (low risk): maximum single impurity is less than 0.1% and total impurity is less than 0.2%)
Risk level assessment value Illumination ([2]; Illumination, 10 days stress testing): 2 (Level 2 (medium risk): maximum single impurity is 0.1-0.2% or total impurity is 0.2%-0.4%)
Risk level assessment value RH75% ([2]; RH75%, 10 days stress testing): 1 (Level 1 (low risk): maximum single impurity is less than 0.1% and total impurity is less than 0.2%)
Risk level assessment value RH92.5% ([2]; RH92.5%, 10 days stress testing): 1 (Level 1 (low risk): maximum single impurity is less than 0.1% and total impurity is less than 0.2%)

From patent US20190224201A1, “PHARMACEUTICAL COMPOSITION COMPRISING NEPTINIB OR SALT THEREOF AND METHOD FOR CONTROLLING IMPURITY THEREOF” (SHENZHEN NEPTUNUS PHARMACEUTICAL RESEARCH INSTITUTE CO., …, priority 2016, published 2019)
